Data from patent US8841312B2, “Fused pyridine, pyrimidine and triazine compounds as cell cycle inhibitors” (Amgen Inc., priority 2007, dated 2014).

What follows are compounds tested against Cdk4/CyclinD1 (Homo sapiens (Human), UniProt P11802) (assay: Cdk4 kinase inhibition assay with recombinant Cdk4/CyclinD1, Rb substrate, [33P]-ATP filter plate). Conditions: 25 μM ATP, read-out: Cdk 4 IC50.
Format: biochemical
Outline: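 Recombinant Cdk4/CyclinD1 or Cdk6/CyclinD3 phosphorylated Rb protein with [33P]-ATP for 1 h at room temperature. Protein was TCA-precipitated on filter plates and bound radioactivity counted. IC50 by nonlinear regression.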

Cdk4/CyclinD1, sequence (P11802 whole entry): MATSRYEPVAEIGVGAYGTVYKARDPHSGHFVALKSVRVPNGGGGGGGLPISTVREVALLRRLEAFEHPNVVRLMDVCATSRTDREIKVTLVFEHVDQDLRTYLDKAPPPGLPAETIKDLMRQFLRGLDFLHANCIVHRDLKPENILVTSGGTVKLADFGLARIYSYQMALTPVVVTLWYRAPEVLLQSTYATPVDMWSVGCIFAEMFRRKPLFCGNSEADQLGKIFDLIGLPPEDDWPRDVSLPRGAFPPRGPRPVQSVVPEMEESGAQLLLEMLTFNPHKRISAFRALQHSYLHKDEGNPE
Cdk4/CyclinD1, sequence (P24385 whole entry partner): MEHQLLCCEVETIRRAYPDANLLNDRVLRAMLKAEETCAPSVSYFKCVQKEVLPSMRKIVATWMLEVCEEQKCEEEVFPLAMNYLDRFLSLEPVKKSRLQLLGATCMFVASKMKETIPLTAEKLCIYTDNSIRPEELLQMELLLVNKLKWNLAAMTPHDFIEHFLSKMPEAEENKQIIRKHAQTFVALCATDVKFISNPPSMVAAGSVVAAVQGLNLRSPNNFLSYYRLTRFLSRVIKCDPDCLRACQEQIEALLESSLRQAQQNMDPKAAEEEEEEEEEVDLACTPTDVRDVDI

| Structure (SMILES) | IC50 |
| --- | --- |
| CNC1CCN(c2ccc(Nc3ncc4c5ccncc5n([C@@H](C)CO)c4n3)nc2)CC1 [Example 367] | 350 nM |
| CN(C)C1CCN(c2ccc(Nc3ncc4c5cc[nH]c(=O)c5n(C5CCCC5)c4n3)nc2)CC1 [Example 123] | 48.1 nM |
| CN(C)C1CCN(c2ccc(Nc3ncc4c5ccncc5n(C5CCS(=O)(=O)CC5)c4n3)nn2)CC1 [Example 279, N-(6-(4-(dimethylamino)-1-piperidinyl)-3-pyridazinyl)-9-(1,1-dioxidotetrahydro-2H-thiopyran-4-yl)-9H-pyrido[4′,3′:4,5]pyrrolo[2,3-d]pyrimidin-2-amine] | 590 nM |
| CC[C@H](C)n1c2cnccc2c2cnc(Nc3ccc(N4CCNC(C)(C)C4)nn3)nc21 [Example 332] | 16 nM |
| CN(C)C1CCN(c2ccc(Nc3ncc4c5ccncc5n([C@H]5CCC[C@@H]5O)c4n3)nn2)CC1 [Example 405] | 750 nM |
| C[C@@H](CO)n1c2cnccc2c2cnc(Nc3ccc(N4CCC(N(C)C)CC4)nn3)nc21 [Example 372] | 129 nM |
| C[C@@H](O)Cn1c2cnccc2c2cnc(Nc3ccc(N4CCNCC4)nn3)nc21 [Example 415] | 259 nM |
| c1cc2c3cnc(Nc4ccc(N5CCNC6(CCC6)C5)nn4)nc3n(C3CCCC3)c2cn1 [Example 246, 9-cyclopentyl-N-(6-(5,8-diazaspiro[3.5]non-8-yl)-3-pyridazinyl)-9H-pyrido[4′,3′:4,5]pyrrolo[2,3-d]pyrimidin-2-amine] | 70 nM |
| COCC(C)(C)n1c2cnccc2c2cnc(Nc3ccc(N4CCC(N(C)C)CC4)cn3)nc21 [Example 273, N-(5-(4-(dimethylamino)-1-piperidinyl)-2-pyridinyl)-9-(2-methoxy-1,1-dimethylethyl)-9H-pyrido[4′,3′:4,5]pyrrolo[2,3-d]pyrimidin-2-amine] | 19 nM |
| c1cc2c3cnc(Nc4ccc(OC5CCNCC5)nn4)nc3n(C3CCCC3)c2cn1 [Example 268, 9-Cyclopentyl-N-(6-(4-piperidinyloxy)-3-pyridazinyl)-9H-pyrido[4′,3′:4,5]pyrrolo[2,3-d]pyrimidin-2-amine] | 11 nM |
| CN(C)C1CCN(c2ccc(Nc3ncc4c5cc[nH]c(=O)c5n(C5CCCC5)c4n3)nn2)CC1 [Example 127] | 5.3 nM |
| C[C@@H](CO)n1c2cnccc2c2cnc(Nc3ccc(N4CCNC(C)(C)C4)cn3)nc21 [Example 378] | 85 nM |
| C[C@H](O)Cn1c2cnccc2c2cnc(Nc3ccc(N4CCC(N(C)C)CC4)cn3)nc21 [Example 422] | 69 nM |
| C[C@H](CO)n1c2cnccc2c2cnc(Nc3ccc(N4CCN[C@@H](C)C4)nn3)nc21 [Example 387] | 227 nM |
| O[C@@H]1CCN(c2ccc(Nc3ncc4c5ccncc5n([C@H]5CCC[C@@H]5O)c4n3)nn2)C1 [Example 408] | 44 nM |
| CC[C@H](C)n1c2cnccc2c2cnc(Nc3ccc(N4CC[C@@H](O)C4)nn3)nc21 [Example 337] | 22 nM |
| O[C@@H]1CCN(c2ccc(Nc3ncc4c5ccncc5n([C@@H]5CCOC5)c4n3)nn2)C1 [Example 392] | 219 nM |
| C[C@H](O)Cn1c2cnccc2c2cnc(Nc3ccc(N4CCNC(C)(C)C4)nn3)nc21 [Example 413] | 33 nM |
| Cc1nc(Nc2ncc3c4ccnc(Cl)c4n(C4CCCC4)c3n2)ccc1N1CCNCC1 [Example 155, 8-Chloro-9-cyclopentyl-N-(6-methyl-5-(1-piperazinyl)-2-pyridinyl)-9H-pyrido[4′,3′:4,5]pyrrolo[2,3-d]pyrimidin-2-amine] | 4.1 nM |
| O[C@@H]1CCC[C@@H]1n1c2cnccc2c2cnc(Nc3ccc(N4CCNCC4)nn3)nc21 [Example 362] | 162 nM |
| CNC1CCN(c2ccc(Nc3ncc4c5ccncc5n([C@H](C)CO)c4n3)nn2)CC1 [Example 386] | 53 nM |

| Structure (SMILES) | IC50 |
| --- | --- |
| CC1(C)CN(c2ccc(Nc3ncc4c5ccncc5n([C@@H]5CCOC5)c4n3)nn2)CCN1 [Example 430] | 21 nM |
| CC[C@H](C)n1c2cnccc2c2cnc(Nc3ccc(N4CCC(NC)CC4)nn3)nc21 [Example 334] | 800 nM |
| COC(=O)CC1CCN(c2ccc(Nc3ncc4c5ccnc(F)c5n(C5CCCC5)c4n3)nc2)CC1 [Example 174, Methyl (1-(6-((9-cyclopentyl-8-fluoro-9H-pyrido[4′,3′:4,5]pyrrolo[2,3-d]pyrimidin-2-yl)amino)-3-pyridinyl)-4-piperidinyl)acetate] | 33 nM |
| c1cncc(-c2ccc(Nc3ncc4c5ccncc5n(C5CCCC5)c4n3)nn2)c1 [Example 267, 9-Cyclopentyl-N-(6-(3-pyridinyl)-3-pyridazinyl)-9H-pyrido[4′,3′:4,5]pyrrolo[2,3-d]pyrimidin-2-amine] | 73 nM |
| COC1CCN(c2ccc(Nc3ncc4c5ccncc5n(C5CCCC5)c4n3)nc2)C1 (stereo not drawn) [Example 73] | 17 nM |
| NC1CCN(c2cnc(Nc3ncc4c5ccncc5n(C5CCCC5)c4n3)cn2)CC1 [Example 82] | 2.6 nM |
| C[C@H](CO)n1c2cnccc2c2cnc(Nc3ccc(N4CCNC(C)(C)C4)cn3)nc21 [Example 383] | 62 nM |
| CNC1CCN(c2ccc(Nc3ncc4c5ccncc5n(C[C@H](C)O)c4n3)nn2)CC1 [Example 411] | 430 nM |
| NC1CCN(c2nc(Nc3ncc4c5ccncc5n(C5CCCC5)c4n3)ns2)CC1 [Example 131, 4-Amino-1-(3-((9-cyclopentyl-9H-pyrido[4′,3′:4,5]pyrrolo[2,3-d]pyrimidin-2-yl)amino)-5-1,2,4-thiadiazolyl)-piperidine] | 174 nM |
| CN1CCN(c2ccc(Nc3ncc4c5cc[nH]c(=O)c5n(C5CCCC5)c4n3)nn2)CC1 [Example 128] | 29 nM |
| CN(C)C1CCN(c2ccc(Nc3ncc4c5ccncc5n([C@H]5CC[C@H](O)CC5)c4n3)nn2)CC1 [Example 287, Trans-4-(2-((6-(4-(dimethylamino)-1-piperidinyl)-3-pyridazinyl)amino)-9H-pyrido[4′,3′:4,5]pyrrolo[2,3-d]pyrimidin-9-yl)cyclohexanol] | 123 nM |
| C[C@H]1CN(c2ccc(Nc3ncc4c5ccncc5n(C5CCCC5)c4n3)nc2)CCN1 [Example 62] | 2 nM |
| CC1CN(c2ccc(Nc3ncc4c5cc[nH]c(=O)c5n(C5CCCC5)c4n3)nn2)CC(C)N1 (stereo not drawn) [Example 125] | 12 nM |
| c1cc2c3cnc(Nc4nsc(NC5CCNC5)n4)nc3n(C3CCCC3)c2cn1 (stereo not drawn) [Example 135] | 10000 nM |
| C[C@H]1CN(c2ccc(Nc3ncc4c5ccncc5n([C@H]5CCC[C@H]5O)c4n3)nc2)CCN1 [Example 359] | 71 nM |
| C[C@@H]1CN(c2ccc(Nc3ncc4c5ccncc5n(C5CCCC5)c4n3)nc2)CCN1 [Example 61] | 1.7 nM |
| O[C@@H]1CCN(c2ccc(Nc3ncc4c5ccncc5n([C@H]5CCC[C@@H]5O)c4n3)nc2)C1 [Example 403] | 350 nM |
| CC[C@H](C)n1c2cnccc2c2cnc(Nc3ccc(N4CCNCC4)cn3)nc21 [Example 330] | 248 nM |
| CCC1CN(c2ccc(Nc3ncc4c5ccncc5n(C5CCCC5)c4n3)nn2)CCN1 (stereo not drawn) [Example 121] | 4.3 nM |
| CCN(CC)C1CCN(c2ccc(Nc3ncc4c5ccnc(O)c5n(C5CCCC5)c4n3)nn2)CC1 [Example 282, 9-cyclopentyl-2-((6-(4-(diethylamino)-1-piperidinyl)-3-pyridazinyl)amino)-9H-pyrido[4′,3′:4,5]pyrrolo[2,3-d]pyrimidin-8-ol] | 2.8 nM |
| CC1CN(c2cnc(Nc3ncc4c5ccncc5n(C5CCCC5)c4n3)cn2)CC(C)N1 (stereo not drawn) [Example 79] | 12 nM |
